Measured values: patent US20250179061A1 (SIRONAX LTD., priority 2022, published 2025)

Tested on: HT-29 cells
Test: HT-29 necroptosis cell viability assay (TNF-α/SMAC mimetic/zVAD-FMK, CellTiter-Glo)
Format: cell-based
Conditions: Homo sapiens, HT-29, HT-29 necroptosis cell viability, IC50 class symbols; read-out: Activity
How it was run: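 HT-29 cells (~5,000/well, overnight) in FBS-free McCoy's 5A with TNF-α 10 ng/ml, SMAC mimetic 6 μM and zVAD-FMK 10 μM plus 10-point 1:3 compound titration, 20 h at 37°C. ATP measured by CellTiter-Glo luminescence; IC50 as geometric mean of duplicates.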

SMILES | IC50
O=c1n(Cc2c(F)cccc2F)cnn1-c1ccc(Oc2ccnc(NCC3CCOC3)c2)cc1 (centres unmarked) [Example 259, 4-(2,6-difluorobenzyl)-2-(4-((2-(((tetrahydrofuran-3-yl)methyl)amino)pyridin-4-yl)oxy)phenyl)-2,4-dihydro-3H-1,2,4-triazol-3-one] | 100 to 1000 nM
CCOC1CN(c2cc(Oc3ccc(-n4ncn(Cc5c(F)cccc5F)c4=O)cc3Cl)c(Cl)cn2)C1 [Example 260, 2-(3-chloro-4-((5-chloro-2-(3-ethoxyazetidin-1-yl)pyridin-4-yl)oxy)phenyl)-4-(2,6-difluorobenzyl)-2,4-dihydro-3H-1,2,4-triazol-3-one] | < 100 nM
CCOC1CN(c2nccc(Oc3ccc(-n4ncn(Cc5c(F)cccc5F)c4=O)cc3)c2Cl)C1 [Example 261, 2-(4-((3-chloro-2-(3-ethoxyazetidin-1-yl)pyridin-4-yl)oxy)phenyl)-4-(2,6-difluorobenzyl)-2,4-dihydro-3H-1,2,4-triazol-3-one] | 100 to 1000 nM
CC1(C#N)CN(c2cc(Oc3ccc(-n4ncn(Cc5c(F)cccc5F)c4=O)cc3F)c(F)cn2)C1 [Example 262, 1-(4-(4-(4-(2,6-difluorobenzyl)-5-oxo-4,5-dihydro-1H-1,2,4-triazol-1-yl)-2-fluorophenoxy)-5-fluoropyridin-2-yl)-3-methylazetidine-3-carbonitrile] | < 100 nM
Cc1cnc(N2CC3(CCOCC3)C2)cc1Oc1ccc(-n2ncn(Cc3c(F)cccc3F)c2=O)cc1 [Example 263, 4-(2,6-difluorobenzyl)-2-(4-((5-methyl-2-(7-oxa-2-azaspiro[3.5]nonan-2-yl)pyridin-4-yl)oxy)phenyl)-2,4-dihydro-3H-1,2,4-triazol-3-one] | < 100 nM
N#CC1CN(c2cc(Oc3ccc(-n4ncn(Cc5c(F)cccc5F)c4=O)cc3)ccn2)CC1O (centres unmarked) [Example 264, 1-(4-(4-(4-(2,6-difluorobenzyl)-5-oxo-4,5-dihydro-1H-1,2,4-triazol-1-yl)phenoxy)pyridin-2-yl)-4-hydroxypyrrolidine-3-carbonitrile] | < 100 nM
CC1(CO)CCN(c2cc(Oc3ccc(-n4ncn(Cc5c(F)cccc5F)c4=O)cc3)ccn2)C1 (centres unmarked) [Example 265, 4-(2,6-difluorobenzyl)-2-(4-((2-(3-(hydroxymethyl)-3-methylpyrrolidin-1-yl)pyridin-4-yl)oxy)phenyl)-2,4-dihydro-3H-1,2,4-triazol-3-one] | 100 to 1000 nM
CCOC1CN(c2cc(Oc3ccc(-n4ncn(Cc5c(F)cccc5F)c4=O)cc3)c(C)cn2)C1 [Example 266, 4-(2,6-difluorobenzyl)-2-(4-((2-(3-ethoxyazetidin-1-yl)-5-methylpyridin-4-yl)oxy)phenyl)-2,4-dihydro-3H-1,2,4-triazol-3-one] | < 100 nM
Cc1cnc(NC23CC(C#N)(C2)C3)cc1Oc1ccc(-n2ncn(Cc3c(F)cccc3F)c2=O)cc1Cl [Example 267, 3-((4-(2-chloro-4-(4-(2,6-difluorobenzyl)-5-oxo-4,5-dihydro-1H-1,2,4-triazol-1-yl)phenoxy)-5-methylpyridin-2-yl)amino)bicyclo[1.1.1]pentane-1-carbonitrile] | < 100 nM
C[C@H]1CCCN1c1cc(Oc2ccc(-n3ncn(Cc4c(F)cccc4F)c3=O)cc2)ccn1 [Example 268, (S)-4-(2,6-difluorobenzyl)-2-(4-((2-(2-methylpyrrolidin-1-yl)pyridin-4-yl)oxy)phenyl)-2,4-dihydro-3H-1,2,4-triazol-3-one] | < 100 nM
O=c1n(Cc2c(F)cccc2F)cnn1-c1ccc(Oc2ccnc(N3CCOC4(COC4)C3)c2)cc1 [Example 269, 2-(4-((2-(2,5-dioxa-8-azaspiro[3.5]nonan-8-yl)pyridin-4-yl)oxy)phenyl)-4-(2,6-difluorobenzyl)-2,4-dihydro-3H-1,2,4-triazol-3-one] | 100 to 1000 nM
N#CC12CC(Nc3cc(Oc4ccc(-n5ncn(Cc6c(F)cccc6F)c5=O)cc4F)c(Cl)cn3)(C1)C2 [Example 270, 3-((5-chloro-4-(4-(4-(2,6-difluorobenzyl)-5-oxo-4,5-dihydro-1H-1,2,4-triazol-1-yl)-2-fluorophenoxy)pyridin-2-yl)amino)bicyclo[1.1.1]pentane-1-carbonitrile] | < 100 nM
Cc1c(Oc2ccc(-n3ncn(Cc4c(F)cccc4F)c3=O)cc2F)ccnc1NC12CC(C#N)(C1)C2 [Example 271, 3-((4-(4-(4-(2,6-difluorobenzyl)-5-oxo-4,5-dihydro-1H-1,2,4-triazol-1-yl)-2-fluorophenoxy)-3-methylpyridin-2-yl)amino)bicyclo[1.1.1]pentane-1-carbonitrile] | < 100 nM
N#CC12CC(Nc3cc(Oc4ccc(-n5ncn(Cc6c(F)cccc6F)c5=O)cc4Cl)c(F)cn3)(C1)C2 [Example 272, 3-((4-(2-chloro-4-(4-(2,6-difluorobenzyl)-5-oxo-4,5-dihydro-1H-1,2,4-triazol-1-yl)phenoxy)-5-fluoropyridin-2-yl)amino)bicyclo[1.1.1]pentane-1-carbonitrile] | < 100 nM
Cc1c(Oc2ccc(-n3ncn(Cc4c(F)cccc4F)c3=O)cc2)ccnc1N1CC2(CCOCC2)C1 [Example 273, 4-(2,6-difluorobenzyl)-2-(4-((3-methyl-2-(7-oxa-2-azaspiro[3.5]nonan-2-yl)pyridin-4-yl)oxy)phenyl)-2,4-dihydro-3H-1,2,4-triazol-3-one] | 100 to 1000 nM
Cc1cc(-n2ncn(Cc3c(F)cccc3F)c2=O)ccc1Oc1ccnc(N2CC3(CCOCC3)C2)c1 [Example 274, 2-(4-((2-(7-oxa-2-azaspiro[3.5]nonan-2-yl)pyridin-4-yl)oxy)-3-methylphenyl)-4-(2,6-difluorobenzyl)-2,4-dihydro-3H-1,2,4-triazol-3-one] | 1000 to 10000 nM
O=c1n(Cc2c(F)cccc2F)cnn1-c1ccc(Oc2ccnc(N3CC(OC(F)(F)F)C3)c2)cc1 [Example 275, 4-(2,6-difluorobenzyl)-2-(4-((2-(3-(trifluoromethoxy)azetidin-1-yl)pyridin-4-yl)oxy)phenyl)-2,4-dihydro-3H-1,2,4-triazol-3-one] | 100 to 1000 nM
N#CC1CCCN(c2cc(Oc3ccc(-n4ncn(Cc5c(F)cccc5F)c4=O)cc3)ccn2)C1 (centres unmarked) [Example 277, 1-(4-(4-(4-(2,6-difluorobenzyl)-5-oxo-4,5-dihydro-1H-1,2,4-triazol-1-yl)phenoxy)pyridin-2-yl)piperidine-3-carbonitrile] | 100 to 1000 nM
N#CC1(CO)CN(c2cc(Oc3ccc(-n4ncn(Cc5c(F)cccc5F)c4=O)cc3)ccn2)C1 [Example 278, 1-(4-(4-(4-(2,6-difluorobenzyl)-5-oxo-4,5-dihydro-1H-1,2,4-triazol-1-yl)phenoxy)pyridin-2-yl)-3-(hydroxymethyl)azetidine-3-carbonitrile] | 100 to 1000 nM
O=c1n(Cc2c(F)cccc2F)cnn1-c1ccc(Oc2ccnc(NCC3CCO3)c2)cc1 (centres unmarked) [Example 279, 4-(2,6-difluorobenzyl)-2-(4-((2-((oxetan-2-ylmethyl)amino)pyridin-4-yl)oxy)phenyl)-2,4-dihydro-3H-1,2,4-triazol-3-one] | 100 to 1000 nM
O=c1n(Cc2c(F)cccc2F)cnn1-c1ccc(Oc2ccnc(N3CC(F)(C4CC4)C3)c2)cc1 [Example 280, 2-(4-((2-(3-cyclopropyl-3-fluoroazetidin-1-yl)pyridin-4-yl)oxy)phenyl)-4-(2,6-difluorobenzyl)-2,4-dihydro-3H-1,2,4-triazol-3-one] | 100 to 1000 nM
CC1CN(c2cc(Oc3ccc(-n4ncn(Cc5c(F)cccc5F)c4=O)cc3)ccn2)CC1C#N (centres unmarked) [Example 281, 1-(4-(4-(4-(2,6-difluorobenzyl)-5-oxo-4,5-dihydro-1H-1,2,4-triazol-1-yl)phenoxy)pyridin-2-yl)-4-methylpyrrolidine-3-carbonitrile] | < 100 nM
C[C@H]1C[C@@H](C#N)CN1c1cc(Oc2ccc(-n3ncn(Cc4c(F)cccc4F)c3=O)cc2)ccn1 [Example 282, (3R,5S)-1-(4-(4-(4-(2,6-difluorobenzyl)-5-oxo-4,5-dihydro-1H-1,2,4-triazol-1-yl)phenoxy)pyridin-2-yl)-5-methylpyrrolidine-3-carbonitrile] | < 100 nM
O=c1n(Cc2c(F)cccc2F)cnn1-c1ccc(Oc2cc(N3CCOCC3)ncc2F)c(F)c1 [Example 283, 4-(2,6-difluorobenzyl)-2-(3-fluoro-4-((5-fluoro-2-morpholinopyridin-4-yl)oxy)phenyl)-2,4-dihydro-3H-1,2,4-triazol-3-one] | < 100 nM
C[C@H]1C[C@@H](C#N)CN1c1cc(Oc2ccc(-n3ncn(Cc4c(F)cccc4F)c3=O)cc2F)c(F)cn1 [Example 284, (3R,5S)-1-(4-(4-(4-(2,6-difluorobenzyl)-5-oxo-4,5-dihydro-1H-1,2,4-triazol-1-yl)-2-fluorophenoxy)-5-fluoropyridin-2-yl)-5-methylpyrrolidine-3-carbonitrile] | < 100 nM
O=c1n(Cc2c(F)cccc2F)cnn1-c1ccc(Oc2cncc(N3CC4(CCOCC4)C3)c2)cc1 [Example 285, 2-(4-((5-(7-oxa-2-azaspiro[3.5]nonan-2-yl)pyridin-3-yl)oxy)phenyl)-4-(2,6-difluorobenzyl)-2,4-dihydro-3H-1,2,4-triazol-3-one] | < 100 nM
CC1(C#N)CN(c2cccnc2OCc2ccc(-n3ncn(Cc4c(F)cccc4F)c3=O)cc2)C1 [Example 286, 1-(2-((4-(4-(2,6-difluorobenzyl)-5-oxo-4,5-dihydro-1H-1,2,4-triazol-1-yl)benzyl)oxy)pyridin-3-yl)-3-methylazetidine-3-carbonitrile] | 100 to 1000 nM
O=c1n(Cc2c(F)cccc2F)cnn1-c1ccc(Oc2ccnc(N3CC(OC(F)F)C3)c2)cc1 [Example 287, 4-(2,6-difluorobenzyl)-2-(4-((2-(3-(difluoromethoxy)azetidin-1-yl)pyridin-4-yl)oxy)phenyl)-2,4-dihydro-3H-1,2,4-triazol-3-one] | < 100 nM
O=c1n(Cc2c(F)ccc(F)c2F)cnn1-c1ccc(Oc2ccnc(N3CC4(CCOCC4)C3)c2)cc1 [Example 288, 2-(4-((2-(7-oxa-2-azaspiro[3.5]nonan-2-yl)pyridin-4-yl)oxy)phenyl)-4-(2,3,6-trifluorobenzyl)-2,4-dihydro-3H-1,2,4-triazol-3-one] | 100 to 1000 nM
